The text below walks through data of patent publication US9505781B2, “Compositions comprising thienopyrimidine and thienopyridine compounds and methods of use thereof” (The Regents of the University of Michigan, priority 2013, dated 2016).

Structures are written as SMILES. pIC50: −log10 of the molar value.

The target of the assay is T1, menin-MLL interaction (Homo sapiens, UniProt O00255).
T1 sequence (O00255 1-610): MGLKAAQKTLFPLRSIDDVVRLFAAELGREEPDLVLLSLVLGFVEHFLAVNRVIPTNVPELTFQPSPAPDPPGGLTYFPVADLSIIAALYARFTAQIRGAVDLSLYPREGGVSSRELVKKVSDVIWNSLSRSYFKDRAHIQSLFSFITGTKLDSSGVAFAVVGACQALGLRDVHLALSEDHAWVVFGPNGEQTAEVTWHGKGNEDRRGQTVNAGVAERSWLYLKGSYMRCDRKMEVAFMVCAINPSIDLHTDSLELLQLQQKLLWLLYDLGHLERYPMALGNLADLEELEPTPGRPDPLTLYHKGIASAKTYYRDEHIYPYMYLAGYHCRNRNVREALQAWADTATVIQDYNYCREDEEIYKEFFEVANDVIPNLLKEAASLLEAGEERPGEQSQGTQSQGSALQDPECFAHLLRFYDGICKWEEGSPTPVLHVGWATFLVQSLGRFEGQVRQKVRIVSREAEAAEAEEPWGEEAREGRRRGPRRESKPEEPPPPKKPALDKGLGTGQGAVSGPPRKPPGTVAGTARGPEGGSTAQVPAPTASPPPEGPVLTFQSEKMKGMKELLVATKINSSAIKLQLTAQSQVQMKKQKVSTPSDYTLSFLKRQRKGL
As to the kind of experiment: biochemical.
Text: Compounds that inhibit the interaction decrease the fluorescence anisotropy which is being used as a read-out for compound screening and for IC50 determination.
`CC1(C)CN=C(C2C[C@@H]3C[C@H]2CN3c2ncnc3sc(CC(F)(F)F)cc23)S1` (mixture of isomers) [Compound 14] showed a negative-log IC50 (pIC50) of 6.30 to 7.00.

The compound `O[C@@H]1CN(Cc2ccccc2)CC[C@H]1Nc1ncnc2sc(CC(F)(F)F)cc12` (relative stereo) [Compound 165] showed a pIC50 of 6.30 to 7.00.

Turning to `CC1(C)CN=C(N2C[C@@H]3CC[C@H]2CN3c2ncnc3sc(CC(F)(F)F)cc23)S1` [Compound 2], the pIC50 was over 7.00. The same measure for `FC(F)(F)Cc1cc2c(N3CCN(c4nnc(C5CC5)s4)CC3)ncnc2s1` [Compound 3]: 6.30 to 7.00.

Consider `NCc1nnc(N2CCN(c3ncnc4sc(CC(F)(F)F)cc34)CC2)s1` [Compound 4], for which the pIC50 was 6.30 to 7.00. The same measure for `FC(F)(F)Cc1sc2ncnc(N3CCN(c4nnc(C(F)(F)F)s4)CC3)c2c1I` [Compound 6]: 6.30 to 7.00; for `Cc1c(CC(F)(F)F)sc2ncnc(N3CCN(c4nnc(C(F)(F)F)s4)CC3)c12` [Compound 7]: 6.30 to 7.00; for `FC(F)(F)Cc1cc2c(N3CCN(c4nnc(CC(F)(F)F)s4)CC3)ncnc2s1` [Compound 8]: 6.30 to 7.00. On to `FC(F)(F)Cc1cc2c(N3CCN(CC4CCCCC4)CC3)ncnc2s1` [Compound 9], for which the negative-log IC50 (pIC50) is 6.30 to 7.00. Under `FC(F)(F)Cc1cc2c(N3CCN(C4CCCCC4)CC3)ncnc2s1` [Compound 11] stands 6.30 to 7.00; under `COc1ccc(CCCc2nnc(N3CCN(c4ncnc5sc(CC(F)(F)F)cc45)CC3)s2)cc1` [Compound 12], 6.30 to 7.00. The same measure for `N#Cc1ccc(N2CCC(N3CCN(c4ncnc5sc(CC(F)(F)F)cc45)CC3)CC2)cc1` [Compound 13]: 6.30 to 7.00; for `FC(F)(F)Cc1cc2c(N3CCN(c4nnc(CCCC5CCCCC5)s4)CC3)ncnc2s1` [Compound 17]: 5.70 to 6.30. For `FC(F)(F)CCc1nnc(N2CCN(c3ncnc4sc(CC(F)(F)F)cc34)CC2)s1` [Compound 18], the pIC50 is 5.70 to 6.30.

Compound `FC(F)(F)Cc1cc2c(N3CCN(c4nnc(CC5CCCC5)s4)CC3)ncnc2s1` [Compound 19] gave a negative logarithm of the IC50 (pIC50) of 5.70 to 6.30. Under `FC(F)(F)Cc1cc2c(N3CCN(c4nnc(C(F)(F)F)o4)CC3)ncnc2s1` [Compound 20] stands 5.70 to 6.30; under `FC(c1cc2c(N3CCN(c4nnc(C(F)(F)F)s4)CC3)ncnc2s1)C(F)(F)F` (stereo not shown) [Compound 21], 5.70 to 6.30. Regarding `CC1(C)CN=C(N2CCN(c3ncnc4sc(CCCC(F)(F)F)cc34)CC2)S1` [Compound 22], the negative logarithm of the IC50 (pIC50) is 5.70 to 6.30. In turn, `OC(c1cc2c(N3CCN(c4nnc(C(F)(F)F)s4)CC3)ncnc2s1)C(F)(F)F` (stereo not shown) [Compound 23] had a pIC50 of 5.70 to 6.30. On to `FC(F)(F)c1nnc(N2CCN(c3ncnc4sc(C(F)(F)C(F)(F)F)cc34)CC2)s1` [Compound 24], for which the negative logarithm of the IC50 (pIC50) is 5.70 to 6.30. Under `COCCCc1cc2c(N3CCN(C4=NCC(C)(C)S4)CC3)ncnc2s1` [Compound 25] stands 5.70 to 6.30; under `CN1CCC(N2CCN(c3ncnc4sc(CC(F)(F)F)cc34)CC2)CC1` [Compound 27], 5.70 to 6.30; under `FC(F)(F)c1nnc(N2CCN(c3ncnc4sc(C5CC5)cc34)CC2)s1` [Compound 28], 5.70 to 6.30. Under `CC(C)c1cc2c(N3CCN(C4=NCC(C)(C)S4)CC3)ncnc2s1` [Compound 30] stands 5.70 to 6.30; under `CCCc1cc2c(N3CCN(C4CCCCCC4)CC3)ncnc2s1` [Compound 31], 5.70 to 6.30. Under `CC(C)c1cc2c(N3CCN(c4nnc(C(F)(F)F)s4)CC3)ncnc2s1` [Compound 32] stands 5.70 to 6.30; under `CCCc1cc2c(N3CCN(c4nnc(C(F)(F)F)s4)CC3)ncnc2s1` [Compound 33], 5.70 to 6.30.

As to `CCCCc1cc2c(N3CCN(c4nnc(C(F)(F)F)s4)CC3)ncnc2s1` [Compound 34], the pIC50 is 5.70 to 6.30. Turning to `CC1(C)CN=C(N2CCN(c3ncnc4sc(CCc5ccccc5)cc34)CC2)S1` [Compound 35], the pIC50 is 5.70 to 6.30. The same measure for `CC1(C)CN=C(N2CCN(c3ncnc4sc(CCC5CC5)cc34)CC2)S1` [Compound 36]: 5.70 to 6.30; for `CC1(C)CN=C(N2CCN(c3ncnc4sc(CCCc5ccccc5)cc34)CC2)S1` [Compound 37]: 5.70 to 6.30. The same measure for `CC(c1cc2c(N3CCN(C4=NCC(C)(C)S4)CC3)ncnc2s1)C(F)(F)F` (stereo not shown) [Compound 38]: 5.70 to 6.30; for `FC(F)(F)Cc1cc2c(N3CCN(c4nnc(CC5CCCCC5)s4)CC3)ncnc2s1` [Compound 39]: 5.70 to 6.30; for `CC1(C)CN=C(N2CCN(c3ncnc4sc(CCCCc5ccccc5)cc34)CC2)S1` [Compound 40]: 5.70 to 6.30. Under `FC(F)(F)Cc1cc2c(N3CCN(c4nnc(CCCc5ccccc5)s4)CC3)ncnc2s1` [Compound 41] stands 5.70 to 6.30; under `FC(F)(F)Cc1cc2c(N3CCN(c4nnc(CCc5ccccc5)s4)CC3)ncnc2s1` [Compound 42], 5.70 to 6.30. The compound `CS(=O)(=O)Cc1ccc(CC(=O)N2CCN(c3ncnc4sc(CC(F)(F)F)cc34)CC2)cc1` [Compound 43] showed a negative logarithm of the IC50 (pIC50) of over 7.00.

Turning to `NS(=O)(=O)Cc1ccc(CC(=O)N2CCN(c3ncnc4sc(CC(F)(F)F)cc34)CC2)cc1` [Compound 44, (4-(2-oxo-2-(4-(6-(2,2,2-trifluoroethyl)thieno[2,3-d]pyrimidin-4-yl)piperazin-1-yl)ethyl)phenyl)methanesulfonamide], the pIC50 was over 7.00. `CS(=O)(=O)Nc1ccc(CC(=O)N2CCN(c3ncnc4sc(CC(F)(F)F)cc34)CC2)cc1` [Compound 45] had a pIC50 of over 7.00. The compound `CN(c1ccc(CC(=O)N2CCN(c3ncnc4sc(CC(F)(F)F)cc34)CC2)cc1)S(C)(=O)=O` [Compound 46] had a pIC50 of over 7.00. Under `NS(=O)(=O)Nc1ccc(CC(=O)N2CCN(c3ncnc4sc(CC(F)(F)F)cc34)CC2)cc1` [Compound 47] stands over 7.00; under `CNS(=O)(=O)Nc1ccc(CC(=O)N2CCN(c3ncnc4sc(CC(F)(F)F)cc34)CC2)cc1` [Compound 48], over 7.00; under `CCS(=O)(=O)Nc1ccc(CC(=O)N2CCN(c3ncnc4sc(CC(F)(F)F)cc34)CC2)cc1` [Compound 49], over 7.00. With `NCCS(=O)(=O)Nc1ccc(CC(=O)N2CCN(c3ncnc4sc(CC(F)(F)F)cc34)CC2)cc1` [Compound 50], the negative logarithm of the IC50 (pIC50) was over 7.00. The same measure for `CN(C)S(=O)(=O)Nc1ccc(CC(=O)N2CCN(c3ncnc4sc(CC(F)(F)F)cc34)CC2)cc1` [Compound 51]: over 7.00; for `O=C(Cc1ccc(NS(=O)(=O)N2CCCCC2)cc1)N1CCN(c2ncnc3sc(CC(F)(F)F)cc23)CC1` [Compound 52]: over 7.00. On to `O=C(Cc1ccc(NS(=O)(=O)N2CCOCC2)cc1)N1CCN(c2ncnc3sc(CC(F)(F)F)cc23)CC1` [Compound 53], for which the pIC50 was over 7.00. Take `CCCCS(=O)(=O)Nc1ccc(CC(=O)N2CCN(c3ncnc4sc(CC(F)(F)F)cc34)CC2)cc1` [Compound 54]: the pIC50 was over 7.00. In turn, `CN1CCN(S(=O)(=O)Nc2ccc(CC(=O)N3CCN(c4ncnc5sc(CC(F)(F)F)cc45)CC3)cc2)CC1` [Compound 55] had a pIC50 of over 7.00. Under `CC(C)S(=O)(=O)Nc1ccc(CC(=O)N2CCN(c3ncnc4sc(CC(F)(F)F)cc34)CC2)cc1` [Compound 56] stands over 7.00; under `CC(=O)NCCS(=O)(=O)Nc1ccc(CC(=O)N2CCN(c3ncnc4sc(CC(F)(F)F)cc34)CC2)cc1` [Compound 57], over 7.00. Under `CNCCS(=O)(=O)Nc1ccc(CC(=O)N2CCN(c3ncnc4sc(CC(F)(F)F)cc34)CC2)cc1` [Compound 58] stands over 7.00; under `CN(C)CCS(=O)(=O)Nc1ccc(CC(=O)N2CCN(c3ncnc4sc(CC(F)(F)F)cc34)CC2)cc1` [Compound 59], over 7.00; under `CC(C)NCCS(=O)(=O)Nc1ccc(CC(=O)N2CCN(c3ncnc4sc(CC(F)(F)F)cc34)CC2)cc1` [Compound 60], over 7.00. The same measure for `CS(=O)(=O)N(CC#N)c1ccc(CC(=O)N2CCN(c3ncnc4sc(CC(F)(F)F)cc34)CC2)cc1` [Compound 61]: over 7.00.

`O=C(Cc1ccc(NS(=O)(=O)CNCC(F)(F)F)cc1)N1CCN(c2ncnc3sc(CC(F)(F)F)cc23)CC1` [Compound 62] showed a negative logarithm of the IC50 (pIC50) of over 7.00. The same measure for `CS(=O)(=O)N(CC#N)c1ccc(CC(=O)N2CCN(C3=NC=NC4SC(CC(F)(F)F)=CC34)CC2)c(Cl)c1` (stereo not shown) [Compound 63]: over 7.00; for `CS(=O)(=O)Nc1ccc(CC(=O)N2CCN(C3=NC=NC4SC(CC(F)(F)F)=CC34)CC2)c(Cl)c1` (stereo not shown) [Compound 64]: over 7.00; for `CN(c1ccc(CC(=O)N2CCN(C3=NC=NC4SC(CC(F)(F)F)=CC34)CC2)c(Cl)c1)S(C)(=O)=O` (stereo not shown) [Compound 65]: over 7.00. The same measure for `CCN(c1ccc(CC(=O)N2CCN(C3=NC=NC4SC(CC(F)(F)F)=CC34)CC2)c(Cl)c1)S(C)(=O)=O` (stereo not shown) [Compound 66]: over 7.00. Compound `O=C(Cc1ccccc1)N1CCN(c2ncnc3sc(CC(F)(F)F)cc23)CC1` [Compound 67] had a negative-log IC50 (pIC50) of 6.30 to 7.00. The compound `O=C(Cc1ccccc1O)N1CCN(c2ncnc3sc(CC(F)(F)F)cc23)CC1` [Compound 68] showed a negative logarithm of the IC50 (pIC50) of 6.30 to 7.00. The same measure for `Nc1ccc(CC(=O)N2CCN(c3ncnc4sc(CC(F)(F)F)cc34)CC2)cc1` [Compound 69]: 6.30 to 7.00; for `O=C(Cc1ccccc1Cl)N1CCN(c2ncnc3sc(CC(F)(F)F)cc23)CC1` [Compound 70]: 6.30 to 7.00.

As usually defined, the pIC50 is the negative decadic logarithm of the IC50, by convention in mol/L. A low value points to a large IC50.
